Assay results: publication PMC8540821, “Estimation of the Difference in Colistin Plasma Levels in Critically Ill Patients with Favorable or Unfavorable Clinical Outcomes” (Pharmaceutics, 2021)
Read-outs that look alike come from different tables or passages of the source. Where a SMILES comes first, the peptide text is derived from it. Bridges are numbered along the chain shown (N, C = ends). [ ]: non-standard residue; d: D form. The star is where a group is joined. X1 = CC[C@H](C)CCCCC(=O)*; Dab = NCC[C@H](N)C(=O)O

Assays:
clinical = conditions: human, in vivo, plasma Cmin, fourth day of treatment, HPLC-UV, median (IQR), read-out: Colistin levels, Median, IQR
Method: The doses were prescribed by the treating physician based on the institution’s drug-therapeutic guidelines (load of 1 mg/kg and maintenance of 3 mg/kg per day, divided into three doses). Measurement of the colistin concentration in plasma was performed on the fourth day of treatment, when it was assumed that the colistin concentrations would have reached a steady state. Colistin plasma concentrations (Cmin) were measured just before CMS administration. Cmin was chosen because it is more convenient from a practical point of view. Clinical outcomes were classified as (a) favorable (absence of fever (T < 38 °C); leukocytosis <12,000; not requiring vasopressors; in infections in which control cultures could be obtained, these cultures must be sterile within 7 days of treatment and without changes in the initial antimicrobial regimen within of the first 7 days of treatment. In addition, mortality at 30 days was measured as a secondary outcome; or (b) unfavorable (in the case of fever > 38 °C; leukocytosis > 12,000; requirement for a vasopressor or the presence of positive control cultures for the initial microorganism). The clinical outcomes were determined by consensus of at least two physicians on the study team. If all the criteria were met, the patient was assigned as having a favorable outcome; if one criterion was not met, the outcome was considered not favorable. […]

[1] = test system: multiresistant Gram-negative carbapenemase-producing bacteria; test: Clinical outcome at day 7 and 30-day mortality in patients treated with CMS; type: in vivo, human
Method: This prospective observational study was conducted from September 2017 and June 2020 at a university clinic in the Hospitalization and Critical Care services. The participation of patients in the study was according to the proposed inclusion criteria. Patients over 18 years old, hospitalized for infections caused by multiresistant Gram-negative carbapenemase-producing bacteria, diagnosed in hospital at the clinic of the University of La Sabana, who had been treated with CMS for at least 7 days at the institution, were included. […] Detailed demographic (age, sex, weight), clinical (site of infection, severity of disease, comorbidities (Charlson comorbidity index), CMS loading dose, CMS maintenance dose, duration of treatment, days of stay in the hospital, mortality, carbapenemase class, concomitant antibiotic therapy), laboratory (hemoglobin, red blood cell, neutrophil and platelet counts, serum creatinine and glomerular filtration rate (GFR)), and microbiological (bacterial isolation and characterization) data from each patient were recorded.
The doses were prescribed by the treating physician based on the institution’s drug-therapeutic guidelines (load of 1 mg/kg and maintenance of 3 mg/kg per day, divided into three doses). Measurement of the colistin concentration in plasma was performed on the fourth day of treatment, when it was assumed that the colistin concentrations would have reached a steady state. Colistin plasma concentrations (Cmin) were measured just before CMS administration. Cmin was chosen because it is more convenient from a practical point of view. Clinical outcomes were classified as (a) favorable (absence of fever (T < 38 °C); leukocytosis <12,000; not requiring vasopressors; in infections in which control cultures could be obtained, these cultures must be sterile within 7 days of treatment and without changes in the initial antimicrobial regimen within of the first 7 days of treatment. In addition, mortality at 30 days was measured as a secondary outcome; or (b) unfavorable (in the case of fever > 38 °C; leukocytosis > 12,000; requirement for a vasopressor or the presence of positive control cultures for the initial microorganism). The clinical outcomes were determined by consensus of at least two physicians on the study team. If all the criteria were met, the patient was assigned as having a favorable outcome; if one criterion was not met, the outcome was considered not favorable.

[2] = Acute kidney injury / renal failure (serum creatinine increase above 0.3 mg/dl in 48 h) by colistin level; type: in vivo, human; conditions: high colistin levels n = 2
Method: Regarding the incidence of renal failure, defined as an increase in serum creatinine above 0.3 mg/dl in 48 h, this occurred in 20.7% of patients with low colistin levels, in 50% of patients with normal colistin levels, and in 50% of patients with high colistin levels (Table 5).

P. aeruginosa = test: Susceptibility of clinical isolates (VITEK 2; MIC by broth dilution on microplate); type: cell-based, Pseudomonas aeruginosa
From the text: (§1) The bacterial isolates were recovered in MacConkey agar (Oxoid-Thermo Scientific®, Hampshire, UK) and sent to the Bacterial Molecular Genetics Laboratory in AMIES transport media (COPAN). […] The MICs of meropenem, amikacin, and colistin were established by the broth dilution method on a microplate. E. coli ATCC® 25922^TM and P. aeruginosa ATCC® 27853^TM strains was used as a susceptibility control (American Type Culture Collection). Finally, the carbapenemase genes blaIMP, blaOXA-48, blaVIM, blaGES, blaKPC, and blaNDM were assessed by multiplex PCR [45].

K. pneumoniae = test: as above; type: cell-based, Klebsiella pneumoniae
From the text: as §1

P. putida = test: as above; type: cell-based, Pseudomonas putida
From the text: as §1

A. baumannii = test: as above; type: cell-based, Acinetobacter baumannii; conditions: n = 1, favorable outcome
From the text: as §1

E. cloacae = test: as above; type: cell-based, Enterobacter cloacae; conditions: n = 1, favorable outcome
From the text: as §1

E. coli = test: as above; type: cell-based, Escherichia coli; conditions: n = 1, favorable outcome
From the text: as §1

C. freundii = test: as above; type: cell-based; conditions: n = 1, unfavorable outcome
From the text: as §1

[3] = cited from earlier work
From the text: Colistin has been clinically available since the 1950s, but it soon fell into disuse, mainly due to its nephrotoxic potential. Alongside its nephrotoxicity, which ranges between 0 and 58% in different studies, some evidence has found the incidence of peripheral neuropathy may be up to 50% with its use, as the main manifestation of neurotoxicity. The lack of other available options has increased the use of colistin in MDR infections, even with its safety profile. The pharmacokinetics of colistin are complex. Colistin is available as a sulfate and as sodium colis ...

[4] = isolates from patients with favorable outcome n = 10
[5] = isolates from patients with unfavorable outcome n = 14

**Q.** With `CC[C@H](C)CCCCC(=O)N[C@@H](CCN)C(=O)N[C@H](C(=O)N[C@@H](CCN)C(=O)N[C@H]1CCNC(=O)[C@H]([C@@H](C)O)NC(=O)[C@H](CCN)NC(=O)[C@H](CCN)NC(=O)[C@H](CC(C)C)NC(=O)[C@@H](CC(C)C)NC(=O)[C@H](CCN)NC1=O)[C@@H](C)O` [colistin] (X1-[Dab]T[Dab][Dab][Dab][dL]L[Dab][Dab]T; lactam 4-C) as the molecule, how does the level at 96 h (clinical; favorable clinical outcome n = 34, p = 0.167 vs unfavorable) read?
**A.** The level at 96 h was 160 ng/mL.

**Q.** And the level at 96 h (clinical; unfavorable clinical outcome n = 23)?
**A.** Its level at 96 h is 540 ng/mL.

**Q.** What about the “30 days mortality, n, %” value ([1]; high colistin levels n = 2 (>4 µg/mL)) of the same molecule?
**A.** The value was 0 (0%) n, %.

**Q.** And the “30 days mortality, n, %” value ([1]; normal colistin levels n = 2 (2 to 4 µg/mL))?
**A.** The value was 0 (0%) n, %.

**Q.** And the Favorable clinical outcomes ([1]; patients with colistin levels within the normal range)?
**A.** Its Favorable clinical outcomes is 50%.

**Q.** What about the Favorable clinical outcomes ([1]; patients with levels above the limit of normality) of the same molecule?
**A.** Its Favorable clinical outcomes is 50%.

**Q.** What about the Favorable clinical outcomes ([1]; patients with low colistin levels) of the same molecule?
**A.** Its Favorable clinical outcomes is 60%.

**Q.** What about the “Acute kidney injury, n, %” value [2] of the same molecule?
**A.** The value was 1 (50%) n, %.

**Q.** And the “isolates I (intermediate), n (%)” value (P. aeruginosa; [4])?
**A.** Its value is 4 (40) n (%).

**Q.** And the “isolates R (resistant), n (%)” value (P. aeruginosa; [4])?
**A.** Its value is 4 (40) n (%).

**Q.** And the “isolates S (susceptible), n (%)” value (P. aeruginosa; [4])?
**A.** Its value is 2 (20) n (%).

**Q.** What about the “isolates I (intermediate), n (%)” value (P. aeruginosa; [5]) of the same molecule?
**A.** Its value is 6 (42.8) n (%).

**Q.** And the “isolates R (resistant), n (%)” value (P. aeruginosa; [5])?
**A.** Its value is 7 (50) n (%).

**Q.** What about the “isolates S (susceptible), n (%)” value (P. aeruginosa; [5]) of the same molecule?
**A.** Its value is 1 (7.14) n (%).

**Q.** And the “isolates I (intermediate), n (%)” value (K. pneumoniae; favorable outcome n = 3)?
**A.** The value was 1 (33.3) n (%).

**Q.** And the “isolates R (resistant), n (%)” value (K. pneumoniae; favorable outcome n = 3)?
**A.** The value was 2 (66.7) n (%).

**Q.** What about the “isolates S (susceptible), n (%)” value (K. pneumoniae; favorable outcome n = 3) of the same molecule?
**A.** The value was 0 (0) n (%).

**Q.** And the “isolates I (intermediate), n (%)” value (K. pneumoniae; unfavorable outcome n = 2)?
**A.** Its value is 0 (0) n (%).

**Q.** And the “isolates R (resistant), n (%)” value (K. pneumoniae; unfavorable outcome n = 2)?
**A.** Its value is 0 (0) n (%).

**Q.** And the “isolates S (susceptible), n (%)” value (K. pneumoniae; unfavorable outcome n = 2)?
**A.** Its value is 2 (100) n (%).

**Q.** And the “isolates I (intermediate), n (%)” value (P. putida; favorable outcome n = 1)?
**A.** Its value is 1 (100) n (%).

**Q.** What about the “isolates R (resistant), n (%)” value (P. putida; favorable outcome n = 1) of the same molecule?
**A.** Its value is 0 (0) n (%).

**Q.** What about the “isolates S (susceptible), n (%)” value (P. putida; favorable outcome n = 1) of the same molecule?
**A.** The value was 0 (0) n (%).

**Q.** And the “isolates I (intermediate), n (%)” value (P. putida; unfavorable outcome n = 1)?
**A.** Its value is 0 (0) n (%).

**Q.** What about the “isolates R (resistant), n (%)” value (P. putida; unfavorable outcome n = 1) of the same molecule?
**A.** Its value is 0 (0) n (%).

**Q.** What about the “isolates S (susceptible), n (%)” value (P. putida; unfavorable outcome n = 1) of the same molecule?
**A.** The value was 1 (100) n (%).

**Q.** What about the “isolates I (intermediate), n (%)” value (A. baumannii) of the same molecule?
**A.** The value was 1 (100) n (%).

**Q.** And the “isolates R (resistant), n (%)” value (A. baumannii)?
**A.** The value was 0 (0) n (%).

**Q.** And the “isolates S (susceptible), n (%)” value (A. baumannii)?
**A.** The value was 0 (0) n (%).

**Q.** And the “isolates I (intermediate), n (%)” value (E. cloacae)?
**A.** Its value is 0 (0) n (%).

**Q.** And the “isolates R (resistant), n (%)” value (E. cloacae)?
**A.** The value was 1 (100) n (%).

**Q.** And the “isolates S (susceptible), n (%)” value (E. cloacae)?
**A.** The value was 0 (0) n (%).

**Q.** And the “isolates I (intermediate), n (%)” value (E. coli)?
**A.** The value was 1 (100) n (%).

**Q.** And the “isolates R (resistant), n (%)” value (E. coli)?
**A.** The value was 0 (0) n (%).

**Q.** What about the “isolates S (susceptible), n (%)” value (E. coli) of the same molecule?
**A.** The value was 0 (0) n (%).

**Q.** And the “isolates I (intermediate), n (%)” value (C. freundii)?
**A.** The value was 1 (100) n (%).

**Q.** And the “isolates R (resistant), n (%)” value (C. freundii)?
**A.** The value was 0 (0) n (%).

**Q.** What about the “isolates S (susceptible), n (%)” value (C. freundii) of the same molecule?
**A.** The value was 0 (0) n (%).

**Q.** And the “calculated volume of distribution” value [3]?
**A.** The value was 0.34 L/kg.

**Q.** What about the half-life [3] of the same molecule?
**A.** Its half-life is 4.18 h.
